Assay results from patent US7094807B2, “Substituted aryl thioureas and related compounds; inhibitors of viral replication” (Achillion Pharmaceuticals, Inc., priority 2002, dated 2006).

System: HCV replicon
Test: HCV replicon assay (NPT ELISA in HCV replicon-containing cells)
Assay type: cell-based
Settings: Hepatitis C virus, 72 h, read-out: EC50 for inhibition of viral RNA replicon replication in Huh9-13 cells
Experimental: The compounds claimed herein were tested for the ability to inhibit viral replication of the Hepatitis C replicon in cultured cells in which the HCV replicon construct has been incorporated. The HCV replicon system was described by Bartenschlager, et. al (Science, 285, pp. 110-113 (1999)). The replicon system is predictive of in vivo anti-HCV activity; compounds that are active in humans uniformly evidence activity in the replicon assay.
In this assay HCV replicon containing cells are treated with different concentrations of the test compound to ascertain the ability of the test compound to suppress replication of the HCV replicon. As a positive control, HCV replicon-containing cells are treated with different concentrations of interferon alpha, a known inhibitor of HCV replication. The replicon assay system includes Neomycin Phosphotransferase (NPT) as a component of the replicon itself in order to detect the transcription of replicon gene products in the host cell. Cells in which the HCV replicon is actively replicating have high levels of NPT; the level of NPT is proportional to HCV replication. […] The NPT level of each sample is measured using a captured ELISA.
A protocol for testing compounds for the ability to inhibit viral replication of the Hepatitis C replicon cultured cells in which the replicon construct has been incorporated, follows.
The HCV replicon contains, 5-′3′, the HCV-IRES, the neomycin phosphotransferase (neo) gene, the IRES of encephalomyocarditis virus, which directs translation of HCV sequences NS3 to NS5B, and the 3′-NTR. The sequence of the HCV replicon has been deposited in GenBank (Accession no. AJ242652).
The replicon is transfected into Huh-7 cells using standard methods such as electroporation.
The equipment and materials include, but are not limited to, Huh-7 HCV replicon-containing cells, maintenance media (DMEM (Dulbecco's modified Eagle media) supplemented with 10% FBS, L-glutamine, non-essential amino acids, penicillin (100 units/ml), streptomycin (100 micrograms/ml), and 500 micrograms/ml of Geneticin G418), screening media (DMEM supplemented with 10% FBS, L-glutamine, and non-essential amino acid, penicillin (100 units/ml) and streptomycin (100 micrograms/ml)), 96 well tissue culture plates (flat bottom), 96 well plates (U bottom for drug dilution), Interferon alpha for positive control, fixation reagent (such as methanol: acetone), primary antibody (rabbit anti-NPTII), secondary antibody: Eu-N1 l, and enhancement solution.
HCV replicon-containing cells are rinsed with once PBS once; 2 mls of trypsin is added. Cells are incubated at 37° C. in a 5% CO2 incubator for 3-5 minutes. 10 mls of complete medium is added to stop the reaction. Cells are blown gently, put into a 15 ml tube, and spun at 1200 rpm for four minutes. The trypsin/medium solution is removed and 5 mls of medium (500 ml DMEM (high glucose)) from BRL catalog #12430-054; 50 mls 10% FBS, […] (50 mg/ml, BRL 10131-035), 5 ml MEM non-essential amino acid (100×BRL #11140-050) and 5 ml pen-strep (BRL #15140-148) is added. The cells and media are mixed carefully
Cells are plated with screening medium (500 ml DMEM (BRL #21063-029), 50 ml FBS (BRL #10082-147) and 5 ml MEM non-essential amino acid (BRL #11140-050) at 6000-7500 cells/100 μl/well of 96 well plate (6-7.5×10^5 cells/10 ml/plate). Plates are placed into 37° C. 5% CO2 incubator overnight.
The following morning, drugs (test compounds or interferon alpha) are diluted in 96 well U bottom plates with media or DMSO/media, depending on the final concentration chosen for screening. Generally for 6 concentrations of each test compounds ranging from 10 micromolar to 0.03 micromolar are applied. 100 μl of the test compound dilution is placed in wells of the 96 well plate containing the HCV replicon cells. Media without drug is added to some wells as a negative controls. DMSO is known to affect cell growth. […]

Which EC50 does the source give for `CCCCOC(=O)c1ccc(NC(=S)N(C)C(=O)COc2ccccc2C)cc1` [Compound 4, 4-[3-Methyl-3-(2-o-tolyloxy-acetyl)-thioureido]-benzoic acid butyl ester] here?
Its EC50 is 4.3 µM.

Which EC50 does the source give for `CCCCOC(=O)c1ccc(NC(=S)NC(=O)COc2ccc(F)cc2)cc1` [Compound 7, 4-{3-[2-(4-Fluoro-phenoxy)-acetyl]-thioureido}-benzoic acid butyl ester] here?
Its EC50 is 3.4 µM.

For `N#Cc1ccc(NC(=S)NC(=O)COc2ccc(Cl)c(Cl)c2)cc1` [Compound 24, 1-(2-(3,4-dichloro-phenoxy)acetyl)-3-(4-cyanophenyl)thiourea], which EC50 is on record?
Its EC50 is 12.1 µM.

For `CCCCOC(=O)c1ccc(NC(=S)NC(=O)CSc2ccccc2)cc1` [Compound 36, 4-[3-(2-(Phenylsulfanyl)-acetyl)-thioureido]-benzoic acid butyl ester], which EC50 is on record?
Its EC50 is 2.3 µM.

Same assay, conditions: Hepatitis C virus, 72 h; HCV replicon-containing Huh-7 cells; three days incubation; read-out: EC50 for inhibition of replication of the HCV replicon

How did the EC50 turn out when `CCCCOC(=O)c1ccc(NC(=S)NC(=O)c2ccc3ccccc3c2)cc1` [Compound 1, 4-[3-(Naphthalene-2-carbonyl)-thioureido]-benzoic Acid Butyl Ester] was run?
Its EC50 is less than 30 µM.

Which EC50 does the source give for `CCCCOC(=O)c1ccc(NC(=S)N(C)C(=O)COc2ccccc2)cc1` [Compound 2, 4-[3-Methyl-3-(2-Phenoxy-acetyl)-thioureido]benzoic Acid Butyl Ester] here?
The EC50 was less than 30 µM.

`O=C(COc1ccc(C2CC2)cc1)NC(=S)NCc1cccs1` [Compound 3, 1-(2-(4-Cylcopropylphenoxy)acetyl)-3-((thiophen-2-yl)methyl)thiourea] was tested. Which EC50 did it give?
The EC50 was less than 30 µM.

`CCCCOC(=O)c1ccc(NC(=S)N(C)C(=O)COc2ccccc2C)cc1` [Compound 4, 4-[3-Methyl-3-(2-o-tolyloxy-acetyl)-thioureido]-benzoic acid butyl ester] was tested. Which EC50 did it give?
The EC50 was less than 30 µM.

For `CCCCOC(=O)c1ccc(NC(=S)N(C)C(=O)COc2cccc(C)c2)cc1` [Compound 5, 4-[3-Methyl-3-(2-m-tolyloxy-acetyl)-thioureido]-benzoic acid butyl ester], which EC50 is on record?
Its EC50 is less than 30 µM.

`CCCCOC(=O)c1ccc(NC(=S)NC(=O)COc2ccc(C)cc2)cc1` [Compound 6, 4-[3-(2-p-tolyloxy-acetyl)-thioureido]-benzoic acid butyl ester] was tested. Which EC50 did it give?
The EC50 was less than 30 µM.

How did the EC50 turn out when `CCCCOC(=O)c1ccc(NC(=S)NC(=O)COc2ccc(F)cc2)cc1` [Compound 7, 4-{3-[2-(4-Fluoro-phenoxy)-acetyl]-thioureido}-benzoic acid butyl ester] was run?
Its EC50 is less than 30 µM.

`CCCCOC(=O)c1ccc(NC(=S)NC(=O)COc2ccc(OC)cc2)cc1` [Compound 8, 4-{3-[2-(4-Methoxy-phenoxy)-acetyl]-thioureido}-benzoic acid butyl ester] was tested. Which EC50 did it give?
The EC50 was less than 30 µM.

With `O=C(COc1ccccc1)NC(=S)Nc1ccc(F)cc1` [Compound 9, 1-(4-Fluoro-phenyl)-3-(2-phenoxy-acetyl)-thiourea] as the molecule, how does the EC50 read?
Its EC50 is less than 30 µM.

Which EC50 does the source give for `COc1cccc(NC(=S)NC(=O)COc2ccccc2)c1` [Compound 10, 1-(3-Methoxy-phenyl)-3-(2-phenoxy-acetyl)-thiourea] here?
Its EC50 is less than 30 µM.

With `COc1ccc(NC(=S)NC(=O)COc2ccccc2)cc1` [Compound 11, 1-(4-Methoxy-phenyl)-3-(2-phenoxy-acetyl)-thiourea] as the molecule, how does the EC50 read?
The EC50 was less than 30 µM.

How did the EC50 turn out when `O=C(COc1ccccc1)NC(=S)Nc1ccc(Oc2ccccc2)cc1` [Compound 12, 1-(2-Phenoxyacetyl)-3-(4-phenoxyphenyl)thiourea] was run?
The EC50 was less than 30 µM.

`O=C(COc1ccccc1)NC(=S)Nc1ccc(OCc2ccccc2)cc1` [Compound 13, 1-(4-Benzyloxy-phenyl)-3-(2-phenoxy-acetyl)-thiourea] was tested. Which EC50 did it give?
Its EC50 is less than 30 µM.

`O=C(COc1ccccc1)NC(=S)Nc1ccc(-c2ccccc2)cc1` [Compound 14, 1-Biphenyl-4-yl-3-(2-phenoxy-acetyl)-thiourea] was tested. Which EC50 did it give?
The EC50 was less than 30 µM.

With `O=C(COc1ccccc1)NC(=S)Nc1ccc(C2CCCCC2)cc1` [Compound 15, 1-(4-Cyclohexyl-phenyl)-3-(2-phenoxy-acetyl)-thiourea] as the molecule, how does the EC50 read?
Its EC50 is less than 30 µM.

For `O=C(COc1ccccc1)NC(=S)Nc1ccc(N2CCCCC2)cc1` [Compound 16, 1-[(4-piperidine-1-yl)-phenyl]-3-(2-phenoxy-acetyl)-thiourea], which EC50 is on record?
Its EC50 is less than 30 µM.

Which EC50 does the source give for `CCN(CC)c1ccc(NC(=S)NC(=O)COc2ccccc2)cc1` [Compound 17, 1-(4-(Diethylamino)-phenyl)-3-(2-phenoxy-acetyl)-thiourea] here?
Its EC50 is less than 30 µM.

How did the EC50 turn out when `O=C(COc1ccccc1)NC(=S)Nc1cccc(Oc2ccccc2)c1` [Compound 18, 1-(2-phenoxy-acetyl)-3-(3-phenoxy-phenyl)-thiourea] was run?
The EC50 was less than 30 µM.

For `O=C(COc1ccccc1)NC(=S)Nc1cccc(OCc2ccccc2)c1` [Compound 19, 1-(3-Benzyloxy-phenyl)-3-(2-phenoxy-acetyl)-thiourea], which EC50 is on record?
Its EC50 is less than 30 µM.

For `CC(=O)c1ccccc1NC(=S)NC(=O)COc1ccccc1` [Compound 20, 1-(2-Acetyl-phenyl)-3-(2-phenoxy-acetyl)-thiourea], which EC50 is on record?
The EC50 was less than 30 µM.

How did the EC50 turn out when `O=C(COc1ccccc1)NC(=S)Nc1ccc2cc(F)ccc2c1` [Compound 21, 1-(6-Fluoro-naphthalen-2-yl)-3-(2-phenoxy-acetyl)-thiourea] was run?
Its EC50 is less than 30 µM.

How did the EC50 turn out when `O=C(COc1ccccc1)NC(=S)Nc1ccc2ncsc2c1` [Compound 22, 1-Benzothiazol-6-yl-3-(2-phenoxy-acetyl)-thiourea] was run?
The EC50 was less than 30 µM.

For `O=C(COc1ccccc1)NC(=S)Nc1cnc2ccccc2c1` [Compound 23, 1-(2-Phenoxy-acetyl)-3-quinolin-3-yl-thiourea], which EC50 is on record?
Its EC50 is less than 30 µM.

For `N#Cc1ccc(NC(=S)NC(=O)COc2ccc(Cl)c(Cl)c2)cc1` [Compound 24, 1-(2-(3,4-dichloro-phenoxy)acetyl)-3-(4-cyanophenyl)thiourea], which EC50 is on record?
The EC50 was less than 30 µM.

`O=C(NC(=S)Nc1cccc(Oc2ccccc2)c1)c1ccccc1O` [Compound 25, 1-(2-Hydroxy-benzoyl)-3-(3-phenoxy-phenyl)-thiourea] was tested. Which EC50 did it give?
The EC50 was less than 30 µM.

With `O=C(NC(=S)Nc1cccc(Oc2ccccc2)c1)c1cc2ccccc2o1` [Compound 26, 1-(Benzofuran-2-carbonyl)-3-(3-phenoxy-phenyl)-thiourea] as the molecule, how does the EC50 read?
The EC50 was less than 30 µM.

For `O=C(NC(=S)Nc1cccc(OCc2ccccc2)c1)c1cc2ccccc2o1` [Compound 27, 1-(Benzofuran-2-carbonyl)-3-(3-benzyloxy-phenyl)-thiourea], which EC50 is on record?
The EC50 was less than 30 µM.

`O=C(NC(=S)Nc1cccc(OCc2ccccc2)c1)c1cc2ccccc2s1` [Compound 28, 1-(Benzo[b]thiophene-2-carbonyl)-3-(3-benzyloxy-phenyl)-thiourea] was tested. Which EC50 did it give?
Its EC50 is less than 30 µM.

For `O=C(NC(=S)Nc1cccc(OCc2ccccc2)c1)c1cc2cc(F)ccc2[nH]1` [Compound 29, 1-(3-Benzyloxy-phenyl)-3-(5-fluoro-1H-indole-2-carbonyl)-thiourea], which EC50 is on record?
Its EC50 is less than 30 µM.

With `O=C(NC(=S)Nc1ccc(Oc2ccccc2)cc1)c1cc2cc(F)ccc2o1` [Compound 30, 1-(5-Fluoro-benzofuran-2-carbonyl)-3-(4-phenoxy-phenyl)-thiourea] as the molecule, how does the EC50 read?
The EC50 was less than 30 µM.

How did the EC50 turn out when `Fc1ccc2oc(C(=S)NC(=S)Nc3ccc(Oc4ccccc4)cc3)cc2c1` [Compound 31, 1-(5-Fluoro-benzofuran-2-carbothioyl)-3-(4-phenoxy-phenyl)-thiourea] was run?
The EC50 was less than 30 µM.

How did the EC50 turn out when `O=C(CCc1ccc(F)cc1)NC(=S)Nc1ccc(Oc2ccccc2)cc1` [Compound 32, 1-[3-(4-Fluoro-phenyl)-proprionyl]-3-(4-phenoxy-phenyl)-thiourea] was run?
Its EC50 is less than 30 µM.

With `O=C(COc1ccccc1)NC(=S)NC1CCC(Oc2ccccc2)CC1` (stereo not drawn) [Compound 33, 1-(2-Phenoxy-acetyl)-3-(4-phenoxy-cyclohexyl)-thiourea] as the molecule, how does the EC50 read?
The EC50 was less than 30 µM.

With `O=C(COc1ccccc1)NC(=S)NCCc1ccccc1` [Compound 34, 1-Phenethyl-3-(2-phenoxy-acetyl)-thiourea] as the molecule, how does the EC50 read?
Its EC50 is less than 30 µM.

Which EC50 does the source give for `CN(CCc1ccccc1)C(=S)NC(=O)COc1ccccc1` [Compound 35, 1-Methyl-1-phenethyl-3-(2-phenoxy-acetyl)-thiourea] here?
Its EC50 is less than 30 µM.

With `CCCCOC(=O)c1ccc(NC(=S)NC(=O)CSc2ccccc2)cc1` [Compound 36, 4-[3-(2-(Phenylsulfanyl)-acetyl)-thioureido]-benzoic acid butyl ester] as the molecule, how does the EC50 read?
The EC50 was less than 30 µM.

For `O=C(COc1ccccc1)NC(=S)Nc1ccc2c(c1)OCO2` [Compound 37, 1-Benzo[1,3]dioxol-5-yl-3-(2-phenoxy-acetyl)-thiourea], which EC50 is on record?
Its EC50 is less than 30 µM.

`O=C(COc1ccccc1)N1CCN(c2cccc(OCc3ccccc3)c2)C1=S` [Compound 38] was tested. Which EC50 did it give?
The EC50 was less than 30 µM.
